In the supplement of paper PMC5908809:

Legend:
DERL-7 (IL-2 2.5 ng/mL) [1] = assay: drug sensitivity score (DSS) (DSS units); higher = more sensitive; extreme values may be limits of the assay; conditions: 72 h
[2] = tested on: normal primary NK cells, pool 2 (3 donors) (IL-2 2.5 ng/mL); assay: as above; conditions: 72 h
IMC-1 (IL-2 20 ng/mL) [3] = assay: as above; conditions: 72 h
[4] = tested on: normal primary NK cells, pool 1 (3 donors) (IL-2 2.5 ng/mL); assay: as above; conditions: 72 h
[5] = tested on: normal primary NK cells, pool 1 (3 donors), resting (IL-2 0 ng/mL); assay: as above; conditions: 72 h
[6] = tested on: normal primary NK cells, pool 3 (3 donors) (IL-2 2.5 ng/mL); assay: as above; conditions: 72 h
NKL (IL-2 2.5 ng/mL) [7] = assay: as above; conditions: 72 h
YT (IL-2 2.5 ng/mL) [8] = assay: as above; conditions: 72 h
NK-YS (IL-2 2.5 ng/mL) [9] = assay: as above; conditions: 72 h
SNK-6 (IL-2 2.5 ng/mL) [10] = assay: as above; conditions: 72 h
NK-92 (IL-2 2.5 ng/mL) [11] = assay: as above; conditions: 72 h
KAI3 (IL-2 2.5 ng/mL) [12] = assay: as above; conditions: 72 h
KHYG-1 (IL-2 2.5 ng/mL) [13] = assay: as above; conditions: 72 h
[14] = tested on: normal NK cells expanded with K562-aAPC; assay: as above; conditions: 72 h; IL-2 2.5 ng/mL
Protocol: (§1)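 Drug sensitivity and resistance testing on K562-aAPC-expanded normal NK cells: 5 concentrations (10-fold steps over a 10,000-fold range), 72 h at 37 °C, viability by CellTiter-Glo normalised to DMSO and benzethonium chloride controls; DSS from the fitted curve.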

DERL-7 (IL-2 2.5 ng/mL) [15] = assay: percent inhibition of viability; higher = more inhibition; conditions: 72 h
[16] = tested on: normal primary NK cells, pool 2 (3 donors) (IL-2 2.5 ng/mL); assay: as above; conditions: 72 h
IMC-1 (IL-2 20 ng/mL) [17] = assay: as above; conditions: 72 h
[18] = tested on: normal primary NK cells, pool 1 (3 donors) (IL-2 2.5 ng/mL); assay: as above; conditions: 72 h
[19] = tested on: normal primary NK cells, pool 1 (3 donors), resting (IL-2 0 ng/mL); assay: as above; conditions: 72 h
[20] = tested on: normal primary NK cells, pool 3 (3 donors) (IL-2 2.5 ng/mL); assay: as above; conditions: 72 h
NKL (IL-2 2.5 ng/mL) [21] = assay: as above; conditions: 72 h
YT (IL-2 2.5 ng/mL) [22] = assay: as above; conditions: 72 h
NK-YS (IL-2 2.5 ng/mL) [23] = assay: as above; conditions: 72 h
SNK-6 (IL-2 2.5 ng/mL) [24] = assay: as above; conditions: 72 h
NK-92 (IL-2 2.5 ng/mL) [25] = assay: as above; conditions: 72 h
KAI3 (IL-2 2.5 ng/mL) [26] = assay: as above; conditions: 72 h
KHYG-1 (IL-2 2.5 ng/mL) [27] = assay: as above; conditions: 72 h
[28] = tested on: normal NK cells expanded with K562-aAPC; assay: as above; conditions: 72 h, IL-2 2.5 ng/mL
Protocol: as §1

CCNC(=O)Nc1ccc(-c2nc3c(c(N4CCOC[C@@H]4C)n2)CCN(C2COC2)C3)cc1 [RG-7603] (max concentration tested 2500 nM)
Conditions | drug sensitivity score
DERL-7 (IL-2 2.5 ng/mL) [1] | 8.64
IMC-1 (IL-2 20 ng/mL) [3] | 0.89
KAI3 (IL-2 2.5 ng/mL) [12] | 5.07
KHYG-1 (IL-2 2.5 ng/mL) [13] | 1.86
NK-92 (IL-2 2.5 ng/mL) [11] | 3.67
NK-YS (IL-2 2.5 ng/mL) [9] | 4.64
NKL (IL-2 2.5 ng/mL) [7] | 7.13
SNK-6 (IL-2 2.5 ng/mL) [10] | 4.17
YT (IL-2 2.5 ng/mL) [8] | 3.15
[2] | 0.33
[4] | 2.37
[5] | 0.19
[6] | 0
[14] | 2.54

percent inhibition of viability [%]
Conditions | 0.25 nM | 2.5 nM | 25 nM | 250 nM | 2500 nM
DERL-7 (IL-2 2.5 ng/mL) [15] | -2.9 | 5.17 | 4.85 | 41.4 | 63.4
IMC-1 (IL-2 20 ng/mL) [17] | -2.39 | -0.65 | -9.05 | -18.6 | -57.2
KAI3 (IL-2 2.5 ng/mL) [26] | -2.16 | 10.2 | 4.9 | 24.3 | 45.1
KHYG-1 (IL-2 2.5 ng/mL) [27] | -4.71 | -3.78 | -6.03 | 6.5 | 24.9
NK-92 (IL-2 2.5 ng/mL) [25] | -10.2 | -10.6 | -15.4 | 17.8 | 33.1
NK-YS (IL-2 2.5 ng/mL) [23] | -8.96 | -4.62 | -4.67 | 17.1 | 44.4
NKL (IL-2 2.5 ng/mL) [21] | -16.4 | -9.21 | 1.54 | 34.9 | 54.6
SNK-6 (IL-2 2.5 ng/mL) [24] | 15 | 2.98 | -2.03 | 14.2 | 42.2
YT (IL-2 2.5 ng/mL) [22] | -0.19 | -2.47 | -0.44 | 8.66 | 37
[16] | -4.33 | -4.69 | -7.06 | 3.67 | 13.1
[18] | -9.72 | -0.76 | 9.2 | 14.6 | 21
[19] | -10.2 | -9.16 | 15.7 | 0.22 | 16
[20] | -5.74 | -6.13 | -4.3 | -0.62 | 10.1
[28] | -3.77 | -6.71 | -1.18 | 12.9 | 25.9

CNC(=O)c1nn(C)c2c1C(C)(C)Cc1cnc(Nc3ccc(N4CCN(C)CC4)cc3)nc1-2 [Milciclib] (max concentration tested 10000 nM)
Conditions | drug sensitivity score
DERL-7 (IL-2 2.5 ng/mL) [1] | 13.6
IMC-1 (IL-2 20 ng/mL) [3] | 5.2
KAI3 (IL-2 2.5 ng/mL) [12] | 10.3
KHYG-1 (IL-2 2.5 ng/mL) [13] | 18.2
NK-92 (IL-2 2.5 ng/mL) [11] | 10.8
NK-YS (IL-2 2.5 ng/mL) [9] | 10.9
NKL (IL-2 2.5 ng/mL) [7] | 10.7
SNK-6 (IL-2 2.5 ng/mL) [10] | 8.04
YT (IL-2 2.5 ng/mL) [8] | 8.93
[2] | 12.2
[4] | 10.6
[5] | 13.5
[6] | 9.53
[14] | 12.8

percent inhibition of viability [%]
Conditions | 1 nM | 10 nM | 100 nM | 1000 nM | 10000 nM
DERL-7 (IL-2 2.5 ng/mL) [15] | 3.27 | -10.3 | 4.85 | 67.1 | 98.4
IMC-1 (IL-2 20 ng/mL) [17] | -3.68 | -8.88 | -4.95 | -5.54 | 101
KAI3 (IL-2 2.5 ng/mL) [26] | 2.07 | -4.15 | 13.3 | 40 | 103
KHYG-1 (IL-2 2.5 ng/mL) [27] | 0.72 | 0.82 | 16.2 | 88.3 | 108
NK-92 (IL-2 2.5 ng/mL) [25] | -4.06 | -2.4 | 1.56 | 39 | 101
NK-YS (IL-2 2.5 ng/mL) [23] | -3.1 | -3.45 | 7.23 | 40.2 | 103
NKL (IL-2 2.5 ng/mL) [21] | -13.6 | -18.8 | -12.2 | 37.9 | 106
SNK-6 (IL-2 2.5 ng/mL) [24] | 2.94 | -5.15 | -12.8 | 17.8 | 93.1
YT (IL-2 2.5 ng/mL) [22] | 1.63 | 0.13 | -0.36 | 21 | 106
[16] | -6.1 | -7.12 | 7.61 | 55.9 | 96.4
[18] | -4.67 | -0.64 | -2.17 | 41.2 | 94.1
[19] | -2.66 | 2.94 | 14.9 | 61.7 | 88.7
[20] | -13.5 | -12.3 | -7.15 | 27.3 | 98.8
[28] | 4.02 | -0.67 | 11 | 58 | 101
